Test results from patent US10207989B2, “Substituted alkyl diaryl derivatives, methods of preparation and uses” (TEMPLE UNIVERSITY—OF THE COMMONWEALTH SYSTEM OF HIGHER …, priority 2012, dated 2019).

Legend:
[1] = system: K562 (chronic myelogenous leukemia; leukemia cell line +ve for Bcr-Abl); assay: Cancer cell assay, tumor cells K562; assay type: cell-based; settings: Homo sapiens, compound in DMSO 0.01 μM to 100 μM, examined 96 hours later, viable cells by trypan blue exclusion
Experimental: (§1) The effect of the compounds of the invention on tumor cells was determined by the assay described by Latham et al., Oncogene 12:827-837 (1996). Tumor cells K562 (chronic myelogenous leukemia; leukemia cell line +ve for Bcr-Abl) or DU145 (prostate cancer) were plated in 12-well dishes at a cell density of 2.5×10^4 cells well. The plated cells were treated 24 hours later with a compound of the invention dissolved in DMSO at multiple concentrations ranging from 0.01 μM to 100 μM. The plates were examined 96 hours later under an inverted microscope, Olympus CK-2 using a 10× objective, and compound activity was noted by physical observation. When necessary, the total number of viable cells was determined by trypsinizing the wells and counting the number of viable cells, as determined by trypan blue exclusion, using a hemacytometer.

DU145 (prostate cancer) = assay: Cancer cell assay, tumor cells DU145; assay type: cell-based; settings: Homo sapiens, examined 96 hours later, viable cells by trypan blue exclusion
Experimental: as §1

[2] = DU-145, compound in DMSO 0.01 μM to 100 μM

Question: Which IC50 [1] does the source give for `O=S(=O)(CCc1ccc(F)cc1)Cc1ccc(Cl)cc1` [Example 2, 1-Chloro-4-(((4-fluorophenethyl)sulfonyl)methyl)benzene] here?
Answer: 1.5 µM

Question: What about the melting point of the same compound?
Answer: 142 to 144 °C

Question: What about the IC50 (DU145 (prostate cancer); [2]) of the same compound?
Answer: 1.5 µM

Question: For `COc1cc(OC)c(CCS(=O)(=O)Cc2ccc(OC)c(N)c2)c(OC)c1` [Example 3, 2-Methoxy-5-(((2,4,6-trimethoxyphenethyl)sulfonyl)methyl)aniline], which IC50 [1] is on record?
Answer: 0.0025 µM

Question: What about the melting point of the same compound?
Answer: 128 to 130 °C

Question: What about the IC50 (DU145 (prostate cancer); [2]) of the same compound?
Answer: 0.003 µM

Question: Which IC50 [1] does the source give for `COc1cc(OC)c(CCS(=O)(=O)Cc2ccc(OC)c(NCC(=O)O)c2)c(OC)c1` [Example 4] here?
Answer: 0.5 µM

Question: What about the melting point of the same compound?
Answer: 146 to 150 °C

Question: And the IC50 (DU145 (prostate cancer); [2])?
Answer: 0.25 µM

Question: What does the source list for `COc1cc(OC)c(CCS(=O)(=O)Cc2ccc(OC)c(O)c2)c(OC)c1` [Example 5, 2-Methoxy-5-(((2,4,6-trimethoxyphenethyl)sulfonyl)methyl)phenol]?
Answer: IC50 [1]: 0.003 µM; melting point: 136 to 138 °C; IC50 (DU145 (prostate cancer); [2]): 0.0075 µM

Question: What does the source list for `O=C(O)c1ccc(CCS(=O)(=O)Cc2ccc(Cl)cc2)cc1` [Example 6, 4-(2-((4-Chlorobenzyl)sulfonyl)ethyl)benzoic acid]?
Answer: IC50 [1]: 10 µM; melting point: 265 to 267 °C; IC50 (DU145 (prostate cancer); [2]): 10 µM

Question: Which results are given for `COc1cc(OC)c(CCC(=O)Nc2ccc(OC)c(N)c2)c(OC)c1` [Example 7, N-(3-Amino-4-methoxyphenyl)-3-(2,4,6-trimethoxyphenyl)propanamide]?
Answer: IC50 [1]: 0.15 µM; IC50 (DU145 (prostate cancer); [2]): 5 µM

Question: With `COC(=O)CNc1cc(CS(=O)(=O)CCc2c(OC)cc(OC)cc2OC)ccc1OC` [Example 8] as the compound, how does the IC50 [1] read?
Answer: 0.15 µM

Question: What about the IC50 (DU145 (prostate cancer); [2]) of the same compound?
Answer: 0.15 µM

Question: With `COC(=O)CN(CC(=O)OC)c1cc(CS(=O)(=O)CCc2c(OC)cc(OC)cc2OC)ccc1OC` [Example 9, Dimethyl 2,2′-((2-methoxy-5-(((2,4,6-trimethoxyphenethyl)sulfonyl)methyl)phenyl)azanediyl)diacetate] as the compound, how does the IC50 [1] read?
Answer: 2 µM

Question: What about the melting point of the same compound?
Answer: 86 to 88 °C

Question: What about the IC50 (DU145 (prostate cancer); [2]) of the same compound?
Answer: 2 µM

Question: What does the source list for `COc1cc(OC)c(CCS(=O)(=O)Nc2ccc(OC)c(N)c2)c(OC)c1` [Example 19, N-(3-Amino-4-methoxyphenyl)-2-(2,4,6-trimethoxyphenyl)ethanesulfonamide]?
Answer: IC50 [1]: 0.003 µM; IC50 (DU145 (prostate cancer); [2]): 0.005 µM

Question: Which IC50 [1] does the source give for `COc1ccc(CS(=O)(=O)CCc2c(OC)cc(OC)cc2OC)cc1` [Example 20, 1,3,5-Trimethoxy-2-(2-((4-methoxybenzyl)sulfonyl)ethyl)benzene] here?
Answer: 0.05 µM

Question: What about the IC50 (DU145 (prostate cancer); [2]) of the same compound?
Answer: 0.15 µM

Question: Which results are given for `COc1cc(OC)c(CCS(=O)(=O)Cc2ccc(OC)c(NCC(=O)O)c2)c(OC)c1` [Example 21, 2 ((2-methoxy-5-(((2,4,6-trimethoxyphenethyl)sulfonyl)methyl)phenyl)amino)acetate]?
Answer: IC50 ([1]; K562, 96 h): 0.04 µM; IC50 (DU145 (prostate cancer); DU-145, 96 h, compound in DMSO 0.01 μM to 100 μM): 0.15 µM

Question: With `COc1ccc(CCNS(=O)(=O)c2ccc(C)cc2)cc1` [Example 22, N-(4-methoxyphenethyl)-4-methylbenzenesulfonamide] as the compound, how does the IC50 [1] read?
Answer: 60 µM

Question: And the IC50 (DU145 (prostate cancer); [2])?
Answer: 60 µM

Question: With `COc1ccc(CCNS(=O)(=O)c2ccc(OC)c([N+](=O)[O-])c2)cc1` [Example 23, 4-methoxy-N-(4-methoxyphenethyl)-3-nitrobenzenesulfonamide] as the compound, how does the IC50 [1] read?
Answer: 35 µM

Question: What about the IC50 (DU145 (prostate cancer); [2]) of the same compound?
Answer: 35 µM

Question: What does the source list for `COc1cc(OC)c(CCNS(=O)(=O)c2ccc(OC)c([N+](=O)[O-])c2)c(OC)c1` [Example 25, 4-methoxy-3-nitro-N-(2,4,6-trimethoxyphenethyl)benzenesulfonamide]?
Answer: IC50 [1]: 35 µM; IC50 (DU145 (prostate cancer); [2]): 35 µM

Question: With `COc1cc(OC)c(CCNS(=O)(=O)c2ccc(OC)c(N)c2)c(OC)c1` [Example 26, 3-amino-4-methoxy-N-(2,4,6-trimethoxyphenethyl)benzenesulfonamide] as the compound, how does the IC50 [1] read?
Answer: 0.75 µM

Question: And the IC50 (DU145 (prostate cancer); [2])?
Answer: 5 µM

Question: With `COc1ccc(CCNS(=O)(=O)c2ccc(OC)cc2)cc1` [Example 27, 4-methoxy-N-(4-methoxyphenethyl)benzenesulfonamide] as the compound, how does the IC50 [1] read?
Answer: 75 µM

Question: And the IC50 (DU145 (prostate cancer); [2])?
Answer: 75 µM

Question: With `COc1ccc(S(=O)(=O)NCCc2c(OC)cc(OC)cc2OC)cc1` [Example 28, 4-methoxy-N-(2,4,6-trimethoxyphenethyl)benzenesulfonamide] as the compound, how does the IC50 [1] read?
Answer: > 10 µM

Question: And the IC50 (DU145 (prostate cancer); [2])?
Answer: > 10 µM

Question: Which IC50 [1] does the source give for `COc1cc(OC)c(CCNS(=O)(=O)c2ccc(C)cc2)c(OC)c1` [Example 29, 4-methyl-N-(2,4,6-trimethoxyphenethyl)benzenesulfonamide] here?
Answer: > 10 µM

Question: And the IC50 (DU145 (prostate cancer); [2])?
Answer: > 10 µM

Question: For `COc1ccc(C(=O)NCCc2c(OC)cc(OC)cc2OC)cc1` [Example 30, 4-methoxy-N-(2,4,6-trimethoxyphenethyl)benzamide], which IC50 [1] is on record?
Answer: 5 µM

Question: What about the IC50 (DU145 (prostate cancer); [2]) of the same compound?
Answer: 15 µM

Question: Which IC50 [1] does the source give for `COc1ccc(CCNC(=O)c2ccc(OC)cc2)cc1` [Example 31, 4-methoxy-N-(4-methoxyphenethyl)benzamide] here?
Answer: 100 µM

Question: What about the IC50 (DU145 (prostate cancer); [2]) of the same compound?
Answer: 75 µM

Question: For `COc1ccc(CCNC(=O)c2ccc(OC)c([N+](=O)[O-])c2)cc1` [Example 32, 4-methoxy-N-(4-methoxyphenethyl)-3-nitrobenzamide], which IC50 [1] is on record?
Answer: 75 µM

Question: What about the IC50 (DU145 (prostate cancer); [2]) of the same compound?
Answer: 75 µM

Question: With `COc1ccc(CCNC(=O)c2ccc(OC)c(N)c2)cc1` [Example 33, 3-amino-4-methoxy-N-(4-methoxyphenethyl)benzamide] as the compound, how does the IC50 [1] read?
Answer: 75 µM

Question: And the IC50 (DU145 (prostate cancer); [2])?
Answer: 75 µM

Question: What does the source list for `COc1cc(OC)c(CCNC(=O)c2ccc(OC)c([N+](=O)[O-])c2)c(OC)c1` [Example 34, 4-methoxy-3-nitro-N-(2,4,6-trimethoxyphenethyl)benzamide]?
Answer: IC50 [1]: 75 µM; IC50 (DU145 (prostate cancer); [2]): 75 µM

Question: For `COc1cc(OC)c(CCNC(=O)c2ccc(OC)c(N)c2)c(OC)c1` [Example 35, 3-amino-4-methoxy-N-(2,4,6-trimethoxyphenethyl)benzamide], which IC50 [1] is on record?
Answer: 0.5 µM

Question: And the IC50 (DU145 (prostate cancer); [2])?
Answer: 5 µM

Question: Which results are given for `COc1ccc(CCS(=O)(=O)Nc2c(OC)cc(OC)cc2OC)cc1` [Example 36, 2-(4-methoxyphenyl)-N-(2,4,6-trimethoxyphenyl)ethanesulfonamide]?
Answer: IC50 [1]: 2.5 µM; IC50 (DU145 (prostate cancer); [2]): 15 µM

Question: What does the source list for `COc1cc(CSCCc2ccc(OC)c(OC)c2)ccc1O` [Example 37, 4-(((3,4-dimethoxyphenethyl)thio)methyl)-2-methoxyphenol]?
Answer: IC50 [1]: 5 µM; IC50 (DU145 (prostate cancer); [2]): 15 µM

Question: With `COc1cc(CS(=O)(=O)CCc2ccc(OC)c(OC)c2)ccc1O` [Example 38, 4-(((3,4-dimethoxyphenethyl)sulfonyl)methyl)-2-methoxyphenol] as the compound, how does the IC50 [1] read?
Answer: > 10 µM

Question: What about the IC50 (DU145 (prostate cancer); [2]) of the same compound?
Answer: > 10 µM
